Laboratory results: patent US20220007644A1, “COMPOSITIONS COMPRISING PYRIDINE CARBOXYLATE HERBICIDES WITH PHOTOSYSTEM II AND OPTIONAL HPPD INHIBITOR HERBICIDES” (Corteva Agriscience LLC, priority 2018, published 2022)

Key:
Format in all cases: in vivo
[1] = test system: POLCO, Polygonum convolvulus (wild buckwheat); test: Greenhouse postemergence herbicidal effect (visual injury, 20-22 d)
Text: (§1) Greenhouse Trial Methodology—Evaluation of Postemergence Herbicidal Effect
(§2) Seeds of the desired test plant species were planted in a 90:10% v/v (volume/volume) mixture of PRO-MIX® BX (Premier Tech Horticulture, Quakertown, Pa., USA) and PROFILE®GREENS GRADE™ (Profile Products LLC, Buffalo Grove, Ill., USA) planting mixture, which typically has a pH of 5.2 to 6.2 and an organic matter content of at least 50 percent, in plastic pots with a surface area of 103.2 square centimeters (cm^2). In some aspects, to help ensure good germination and healthy plants, a fungicide treatment and/or other chemical or physical treatment was applied. The plants were grown for 7-36 days (d) in a greenhouse with an approximate 14-hour (h) photoperiod which was maintained at about 23° C. during the day and 22° C. during the night. Nutrients and water were added on a regular basis and supplemental lighting was provided with overhead metal halide 1000-Watt lamps as necessary. The plants were employed for testing when they reached the second or third true leaf stage.
(§3) Emulsifiable concentrates of each of each pyridine carboxylate herbicide (Compound A or Compound B) were prepared at 100 grams acid equivalent per liter (g ae/L). The emulsifiable concentrates also included a safener, cloquintocet-mexyl, at 120 grams active ingredient per liter (g ai/L), unless otherwise noted below. An aliquot of each emulsifiable concentrate was placed in a 25 mL glass vial and diluted with an aqueous mixture of 1.25% (v/v) ACTIROB® B esterified rapeseed oil (Bayer Crop Science, Research Triangle Park, N.C., USA) or MSO® Concentrate with LECI-TECH® methylated soybean oil (Loveland Products, Loveland, Colo., USA) to obtain concentrated stock solutions at the highest application rate for each herbicide, based upon a 12 milliliter (mL) application volume at a rate of 187 liters per hectare (L/ha). The concentrated stock solutions were further diluted with an aqueous mixture of 1.25% v/v ACTIROB® B or MSO® Concentrate with LECI-TECH® to obtain stock solutions at reduced application rates for each herbicide. Spray solutions of the herbicide combinations (Compound A or Compound B plus PS-II herbicide and optional HPPD herbicide) were prepared by adding weighed amounts or aliquots of the PS-II herbicide and optional HPPD herbicide to the stock solutions of Compound A or Compound B to form 12-mL spray solutions in two- or three-way combinations.
(§4) The spray solutions were applied to the plant material with an overhead Mandel track sprayer equipped with 8002E nozzles calibrated to deliver 187 L/ha over an application area of 0.503 square meters (m^2) at a spray height of 18 inches ([…] centimeters (cm)) above the average plant canopy. Control plants were sprayed in the same manner with the solvent blank. All pyridine carboxylate herbicide (component a) application rates are given as “g ae/ha” and all PS II inhibitor herbicide (component b) and HPPD inhibitor herbicide (component c) application rates are given as “g ai/ha.”
(§5) The treated plants and control plants were placed in a greenhouse as described above and watered by sub-irrigation to prevent wash-off of the test compounds. After 20-22 d, the condition of the test plants as compared with that of the control plants was determined visually and scored on a scale of 0 to 100 percent where 0 corresponds to no injury and 100 corresponds to complete kill.

[2] = test system: BRSNW, Brassica napus (winter rape); test: as above
Text: as §1, §2, §3, §4, §5

[3] = test system: KCHSC, Kochia scoparia (kochia); test: as above
Text: as §1, §2, §3, §4, §5

[4] = test system: AMARE, Amaranthus retroflexus (pigweed); test: as above
Text: as §1, §2, §3, §4, §5

[5] = test system: SASKR, Salsola kali (Russian thistle); test: as above; conditions: 220 g ai/ha alone
Text: as §1, §2, §3, §4, §5

[6] = test system: CHEAL, Chenopodium album L. (common lambsquarters); test: as above
Text: as §1, §2, §3, §4, §5

[7] = test system: MATCH, Matricaria chamomilla (wild chamomile); test: as above
Text: as §1, §2, §3, §4, §5

[8] = test system: CIRAR, Cirsium arvense (Canada thistle); test: as above
Text: as §1, §2, §3, §4, §5

[9] = test system: SINAR, Sinapis arvensis (wild mustard); test: as above
Text: as §1, §2, §3, §4, §5

[10] = test system: TRZAS, Triticum aestivum (spring wheat); test: Greenhouse postemergence phytotoxicity on crop (visual injury, 20-22 d)
Text: as §1, §2, §3, §4, §5

[11] = test system: HORVS, Hordeum vulgare (spring barley); test: as above
Text: as §1, §2, §3, §4, §5

[12] = test system: EPHHL, Euphorbia heterophylla (poinsettia); test: Greenhouse postemergence herbicidal effect (visual injury, 20-22 d)
Text: as §1, §2, §3, §4, §5

[13] = test system: BRSNN, Brassica napus (spring rape); test: as above
Text: as §1, §2, §3, §4, §5

[14] = test system: ABUTH, Abutilon theophrasti (velvetleaf); test: as above
Text: as §1, §2, §3, §4, §5

[15] = test system: SETFA, Setaria faberi (giant foxtail); test: as above
Text: as §1, §2, §3, §4, §5

[16] = test system: VIOTR, Viola tricolor (wild pansy); test: as above
Text: as §1, §2, §3, §4, §5

[17] = test system: STEME, Stellaria media (chickweed); test: as above
Text: as §1, §2, §3, §4, §5

[18] = test system: IPOHE, Ipomoea hederacea (ivyleaf morningglory); test: as above; conditions: 5 g ai/ha alone
Text: as §1, §2, §3, §4, §5

[19] = test system: GLXMA, Glycine max (soybean); test: as above; conditions: 5 g ai/ha alone
Text: as §1, §2, §3, §4, §5

[20] = test system: SORVU, Sorghum vulgare (grain sorghum); test: as above; conditions: 5 g ai/ha alone
Text: as §1, §2, §3, §4, §5

[21] = Fallopia convolvulus, post-emergence, read-out: visual injury Obs

Structure (SMILES): CN(C)C(=O)Nc1ccc(Cl)c(Cl)c1 [Diuron, 3-(3,4-dichlorophenyl)-1,1-dimethylurea]
- pest or weed control at 220 g/ha [1, 21]: 5%
- visual injury Obs ([2]; 220 g ai/ha alone): 5%
- visual injury Obs ([3]; 220 g ai/ha alone): 90%
- visual injury Obs ([4]; 220 g ai/ha alone): 98%
- visual injury Obs [5]: 40%
- visual injury Obs ([6]; 220 g ai/ha alone): 100%
- visual injury Obs ([7]; 220 g ai/ha alone): 15%
- visual injury Obs ([8]; 220 g ai/ha alone): 40%
- visual injury Obs ([9]; 220 g ai/ha alone): 5%
- visual injury Obs ([10]; 220 g ai/ha alone): 0%
- visual injury Obs ([11]; 220 g ai/ha alone): 10%

Structure (SMILES): C#CCOC(=O)c1nc(-c2ccc3cc[nH]c3c2F)c(F)c(N)c1Cl [Compound B, propargyl 4-amino-3-chloro-5-fluoro-6-(7-fluoro-1H-indol-6-yl)pyridine-2-carboxylate]
- visual injury ([12]; 7.5 g ae/ha alone): 83%
- visual injury ([12]; 10 g ae/ha alone): 99%
- % visual injury, Obs ([12]; EPHHL, Compound B 10 g/ha): 99%
- visual injury ([1]; 7.5 g ae/ha alone): 73%
- visual injury ([1]; 10 g ae/ha alone): 80%
- % visual injury, Obs ([1]; POLCO, Compound B 10 g/ha): 80%
- visual injury ([3]; 7.5 g ae/ha alone): 68%
- visual injury ([3]; 10 g ae/ha alone): 80%
- % visual injury, Obs ([3]; KCHSC, Compound B 10 g/ha): 80%
- visual injury ([13]; 7.5 g ae/ha alone): 68%
- visual injury ([13]; 10 g ae/ha alone): 85%
- visual injury ([14]; 7.5 g ae/ha alone): 68%
- visual injury ([14]; 10 g ae/ha alone): 68%
- % visual injury, Obs ([14]; ABUTH, Compound B 10 g/ha): 68%
- visual injury ([15]; 7.5 g ae/ha alone): 70%
- visual injury ([15]; 10 g ae/ha alone): 55%
- % visual injury, Obs ([15]; SETFA, Compound B 10 g/ha): 55%
- visual injury ([16]; 7.5 g ae/ha alone): 10%
- visual injury ([16]; 10 g ae/ha alone): 40%
- % visual injury, Obs ([16]; VIOTR, Compound B 10 g/ha): 40%
- visual injury ([6]; 7.5 g ae/ha alone): 85%
- visual injury ([6]; 10 g ae/ha alone): 90%
- % visual injury, Obs ([6]; CHEAL, Compound B 10 g/ha): 90%
- visual injury ([8]; 7.5 g ae/ha alone): 45%
- visual injury ([8]; 10 g ae/ha alone): 45%
- % visual injury, Obs ([8]; CIRAR, Compound B 10 g/ha): 45%
- visual injury ([17]; 7.5 g ae/ha alone): 100%
- visual injury ([17]; 10 g ae/ha alone): 93%
- % visual injury, Obs ([17]; STEME, Compound B 10 g/ha): 93%

Structure (SMILES): CNC(=O)N(C)c1nnc(C(C)(C)C)s1 [Tebuthiuron, 1-(5-tert-butyl-1,3,4-thiadiazol-2-yl)-1,3-dimethylurea, reference compound]
- pest or weed control at 280 g/ha [1, 21]: 40%
- visual injury Obs ([2]; 280 g ai/ha alone): 45%
- visual injury Obs ([3]; 280 g ai/ha alone): 23%
- visual injury Obs ([4]; 280 g ai/ha alone): 88%
- visual injury Obs ([6]; 280 g ai/ha alone): 98%
- visual injury Obs ([7]; 280 g ai/ha alone): 25%
- visual injury Obs ([8]; 280 g ai/ha alone): 40%
- visual injury Obs ([9]; 280 g ai/ha alone): 35%
- visual injury Obs ([10]; 280 g ai/ha alone): 0%
- visual injury Obs ([11]; 280 g ai/ha alone): 28%

Structure (SMILES): CC(C)N1C(=O)c2ccccc2NS1(=O)=O [Bentazone, 3-isopropyl-1H-2,1,3-benzothiadiazin-4(3H)-one 2,2-dioxide]
- pest or weed control at 51.5 g/ha ([1]; Fallopia convolvulus, post-emergence, 51.5 g ai/ha alone, read-out: visual injury Obs): 20%
- visual injury Obs ([13]; 51.5 g ai/ha alone): 30%
- visual injury Obs ([10]; 51.5 g ai/ha alone): 0%
- visual injury Obs ([11]; 51.5 g ai/ha alone): 0%

Structure (SMILES): CCC(=O)Nc1ccc(Cl)c(Cl)c1 [Propanil, 3′,4′-dichloropropionanilide, reference compound]
- pest or weed control at 5 g/ha ([1]; Fallopia convolvulus, post-emergence, 5 g ai/ha alone, read-out: visual injury Obs): 20%
- visual injury Obs ([14]; 5 g ai/ha alone): 10%
- visual injury Obs [18]: 38%
- visual injury Obs [19]: 23%
- visual injury Obs ([8]; 5 g ai/ha alone): 28%
- visual injury Obs [20]: 15%
